Data taken from publication PMC11365428 (The Journal of Biological Chemistry, 2024).
No end group written: not given here.

Tests used:
apTKRPR-A = target: T1, apTKRPR-A (Aplysia californica, UniProt A0AAU7SSZ1); experiment: IP1 accumulation assay, CHO-K1 cells transiently expressing apTKRPR-A; type: cell-based; conditions: for IP1 response of apTKRPR-A in screening: 10^-5 M compared with 10^-10 M (control), no Gαq cotransfection
T1 sequence (A0AAU7SSZ1 1-398): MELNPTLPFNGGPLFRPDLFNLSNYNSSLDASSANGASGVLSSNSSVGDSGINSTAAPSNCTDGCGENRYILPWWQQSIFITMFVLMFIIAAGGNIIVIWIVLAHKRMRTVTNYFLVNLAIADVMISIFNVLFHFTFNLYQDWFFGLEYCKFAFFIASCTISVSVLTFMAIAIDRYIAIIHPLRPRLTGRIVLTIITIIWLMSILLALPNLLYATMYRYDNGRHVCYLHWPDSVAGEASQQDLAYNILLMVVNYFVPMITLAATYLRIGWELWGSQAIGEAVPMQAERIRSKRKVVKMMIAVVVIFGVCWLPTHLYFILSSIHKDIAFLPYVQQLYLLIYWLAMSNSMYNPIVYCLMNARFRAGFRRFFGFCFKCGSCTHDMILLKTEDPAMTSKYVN
Description: (§1) To express putative Aplysia receptors transiently in CHO-K1 cells, the cDNAs were subcloned into the pcDNA3.1(+) or pcDNA3.1(+)-FLAG (for ELISA experiments only, see “Cell surface expression analysis by ELISA” section) expression vector. On the day before transfection, the CHO-K1 cells were passaged into 60 mm diameter tissue culture–treated dishes, and the transfection experiments were performed when the cells were grown to 70 to 90% confluence. CHO-K1 cells were transfected with the cDNA plasmid constructs using Turbofect Transfection reagent (Thermo Fisher Scientific, R0531), following the manufacturer’s instructions. […] The DNA/TurboFect mixture dropwise was then added to the dish, and the cells were incubated at 37 °C in a humidified incubator containing 5% CO2 overnight.
(§2) On the third day, the activation of the putative receptors was detected by monitoring intracellular IP1 concentration using an IP-One Gq kit (Cisbio, 62IPAPEB) in Tecan Spark. Except for using 0.5x reagent, all other procedures were performed following the manufacturer’s instructions. IP1 accumulation assay measures the accumulation of IP1, which is hydrolyzed from the second messenger, and inositol triphosphate. Inositol triphosphate is generated by the Gαq pathway when a GPCR is activated by an appropriate ligand.

apTKRPR-B = target: T2, apTKRPR-B (Aplysia californica, UniProt A0AAU7STS1); experiment: IP1 accumulation assay, CHO-K1 cells transiently expressing apTKRPR-B; type: cell-based; conditions: for IP1 response of apTKRPR-B in screening: 10^-5 M compared with 10^-10 M (control), no Gαq cotransfection
T2 sequence (A0AAU7STS1 1-447): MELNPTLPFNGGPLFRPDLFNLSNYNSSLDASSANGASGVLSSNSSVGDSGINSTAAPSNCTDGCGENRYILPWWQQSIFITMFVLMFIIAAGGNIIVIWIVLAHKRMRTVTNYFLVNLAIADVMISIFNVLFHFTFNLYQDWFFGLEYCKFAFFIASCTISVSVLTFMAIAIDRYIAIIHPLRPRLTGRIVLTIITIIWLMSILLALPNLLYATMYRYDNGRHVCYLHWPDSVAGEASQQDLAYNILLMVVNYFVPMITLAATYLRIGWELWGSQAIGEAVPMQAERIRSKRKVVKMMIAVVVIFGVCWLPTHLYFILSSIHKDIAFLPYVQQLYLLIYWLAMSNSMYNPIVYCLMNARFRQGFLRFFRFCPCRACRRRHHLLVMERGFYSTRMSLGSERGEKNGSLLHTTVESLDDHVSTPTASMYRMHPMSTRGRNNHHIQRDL
Description: as §1, §2

[1] = test system: putative neuropeptide FF receptor (apNPFFR); experiment: IP1 accumulation assay, CHO-K1 cells transiently expressing putative neuropeptide FF receptor; type: cell-based, Aplysia californica; conditions: 10^-5 M compared with 10^-10 M (control); n = 3; no Gαq cotransfection
Description: To express putative Aplysia receptors transiently in CHO-K1 cells, the cDNAs were subcloned into the pcDNA3.1(+) or pcDNA3.1(+)-FLAG (for ELISA experiments only, see “Cell surface expression analysis by ELISA” section) expression vector. On the day before transfection, the CHO-K1 cells were passaged into 60 mm diameter tissue culture–treated dishes, and the transfection experiments were performed when the cells were grown to 70 to 90% confluence. CHO-K1 cells were transfected with the cDNA plasmid constructs using Turbofect Transfection reagent (Thermo Fisher Scientific, R0531), following the manufacturer’s instructions. In brief, 4 μg of the putative receptor plasmids [in pcDNA3.1(+) or pcDNA3.1(+)-FLAG] were mixed with 400 μl of Opti-MEM (Gibco, 11058021), followed by the addition of 15 μl of TurboFect Transfection reagent and incubated at room temperature for 15 min. The DNA/TurboFect mixture dropwise was then added to the dish, and the cells were incubated at 37 °C in a humidified incubator containing 5% CO2 overnight.
as §2, with “The next day, transfected cells were trypsinized and reseeded in an opaque white 96-well half-area (Corning, 3688) or 384-well tissue culture–treated plates (Corning, 3570) at a density of 20,000 cells/well in F-12K and 10% FBS and incubated at 37 °C in a humidified incubator containing 5% CO2 overnight. On the” for “On the”

[2] = co-transfected with Gαq (Gα16), 10^-5 M compared with 10^-10 M, n = 3

Substance	IP1 response of apTKRPR-A in screening (apTKRPR-A; n = 3)	IP1 response of apTKRPR-A in screening with Gαq cotransfection (apTKRPR-A; [2])	IP1 response of apTKRPR-B in screening (apTKRPR-B; n = 3)	IP1 response of apTKRPR-B in screening with Gαq cotransfection (apTKRPR-B; [2])	IP1 response of putative apNPFFR in screening [1]	EC50 (apTKRPR-A; log10 of EC50 in M, negative, IP1 accumulation, CHO-K1, mean ± SD of at least three independent experiments (apTKRP-1 n = 9; apTKRP-2a n = 11; apTKRP-2b n = 19; analogs, apTKRP-2b-OH n = 4), read-out: apTKRPR-A log[EC50] (converted)) [nM]	EC50 (apTKRPR-B; log10 of EC50 in M, negative, IP1 accumulation, CHO-K1, mean ± SD of at least three independent experiments (apTKRP-1 n = 9; apTKRP-2a n = 11; apTKRP-2b n = 19; analogs, apTKRP-2b-OH n = 4), read-out: apTKRPR-B log[EC50] (converted)) [nM]
FMPGLESLLLAKYYQDAKW [apTKRPG-DP]	did not activate	did not activate	did not activate	did not activate	did not respond	–	–
H-QPHLGFHGSR-NH2 [apTKRP-2a]	responded	–	responded	–	did not respond	107	12.9
